Test results as given in ChEMBL document CHEMBL1138225, “Synthesis and structure-activity relationships of 3,8-diazabicyclo[4.2.0]octane ligands, potent nicotinic acetylcholine receptor agonists” (J Med Chem, 2006).
Calls of active or inactive are those of the source. The rule behind the calls is not given here.

Key:
[1] = target: T1, Neuronal acetylcholine receptor; alpha3/beta4 (Homo sapiens, UniProt P30926+P32297); test: Maximal agonist activity at human alpha-3-beta-4 ACHR expressed in HEK293 cells assessed as change in intracellular calcium concentration by FLIPR relative to nicotine; format: functional, cell-based
T1 sequence (P30926 whole entry): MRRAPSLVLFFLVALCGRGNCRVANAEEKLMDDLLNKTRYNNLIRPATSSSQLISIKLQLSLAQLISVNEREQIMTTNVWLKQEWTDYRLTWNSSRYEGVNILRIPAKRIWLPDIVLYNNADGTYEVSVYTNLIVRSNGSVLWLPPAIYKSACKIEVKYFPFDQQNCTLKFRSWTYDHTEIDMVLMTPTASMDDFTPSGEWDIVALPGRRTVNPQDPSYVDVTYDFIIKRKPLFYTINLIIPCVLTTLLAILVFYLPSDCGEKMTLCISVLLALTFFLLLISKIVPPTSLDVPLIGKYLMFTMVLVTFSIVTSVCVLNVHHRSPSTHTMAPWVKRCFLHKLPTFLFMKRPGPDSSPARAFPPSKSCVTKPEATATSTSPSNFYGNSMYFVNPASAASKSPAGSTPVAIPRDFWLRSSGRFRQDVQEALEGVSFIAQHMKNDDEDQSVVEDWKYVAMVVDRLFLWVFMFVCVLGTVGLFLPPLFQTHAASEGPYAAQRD
T1 sequence (P32297 whole entry): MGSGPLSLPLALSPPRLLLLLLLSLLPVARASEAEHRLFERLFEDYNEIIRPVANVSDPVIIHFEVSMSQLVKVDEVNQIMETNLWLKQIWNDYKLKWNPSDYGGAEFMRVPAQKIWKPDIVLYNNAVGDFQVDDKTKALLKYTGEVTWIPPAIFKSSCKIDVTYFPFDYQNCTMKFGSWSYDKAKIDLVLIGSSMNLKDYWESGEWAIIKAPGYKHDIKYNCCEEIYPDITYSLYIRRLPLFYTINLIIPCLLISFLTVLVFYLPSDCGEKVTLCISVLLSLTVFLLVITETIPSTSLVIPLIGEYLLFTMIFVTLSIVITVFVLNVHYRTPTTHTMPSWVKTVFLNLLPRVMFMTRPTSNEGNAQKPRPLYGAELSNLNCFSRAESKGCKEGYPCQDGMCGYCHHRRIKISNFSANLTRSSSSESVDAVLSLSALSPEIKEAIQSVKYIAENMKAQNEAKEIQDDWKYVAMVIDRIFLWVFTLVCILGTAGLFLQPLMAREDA

[2] = target: T1, Neuronal acetylcholine receptor; alpha3/beta4; test: Agonist activity at human alpha-3-beta-4 ACHR expressed in HEK293 cells assessed as change in intracellular calcium concentration by FLIPR; format: functional, cell-based
Rattus norvegicus [3] = test: Activity in rat formalin model measured as reduction in flinches at 19 umol/kg, ip; format: functional; design: scale not given: the % may be the effect or the level left
[4] = target: T2, Neuronal acetylcholine receptor; alpha4/beta2 (Homo sapiens, UniProt P17787+P43681); test: Agonist activity at human alpha4beta2 ACHR expressed in HEK293 cells assessed as change in intracellular calcium concentration by FLIPR; format: functional, cell-based
T2 sequence (P17787 whole entry): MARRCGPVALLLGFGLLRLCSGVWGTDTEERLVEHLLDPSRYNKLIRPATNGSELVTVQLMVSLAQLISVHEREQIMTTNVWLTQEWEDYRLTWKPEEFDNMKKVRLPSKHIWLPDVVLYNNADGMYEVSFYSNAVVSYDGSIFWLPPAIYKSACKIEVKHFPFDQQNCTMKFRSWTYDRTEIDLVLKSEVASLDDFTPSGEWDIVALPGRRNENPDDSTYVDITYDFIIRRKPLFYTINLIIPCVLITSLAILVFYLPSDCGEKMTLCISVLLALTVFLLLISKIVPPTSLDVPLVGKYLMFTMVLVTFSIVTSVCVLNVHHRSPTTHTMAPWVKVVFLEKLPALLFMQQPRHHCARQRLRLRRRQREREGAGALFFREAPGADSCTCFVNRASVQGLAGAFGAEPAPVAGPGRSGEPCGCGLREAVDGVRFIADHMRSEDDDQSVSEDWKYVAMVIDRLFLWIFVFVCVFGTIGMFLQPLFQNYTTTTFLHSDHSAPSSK
T2 sequence (P43681 whole entry): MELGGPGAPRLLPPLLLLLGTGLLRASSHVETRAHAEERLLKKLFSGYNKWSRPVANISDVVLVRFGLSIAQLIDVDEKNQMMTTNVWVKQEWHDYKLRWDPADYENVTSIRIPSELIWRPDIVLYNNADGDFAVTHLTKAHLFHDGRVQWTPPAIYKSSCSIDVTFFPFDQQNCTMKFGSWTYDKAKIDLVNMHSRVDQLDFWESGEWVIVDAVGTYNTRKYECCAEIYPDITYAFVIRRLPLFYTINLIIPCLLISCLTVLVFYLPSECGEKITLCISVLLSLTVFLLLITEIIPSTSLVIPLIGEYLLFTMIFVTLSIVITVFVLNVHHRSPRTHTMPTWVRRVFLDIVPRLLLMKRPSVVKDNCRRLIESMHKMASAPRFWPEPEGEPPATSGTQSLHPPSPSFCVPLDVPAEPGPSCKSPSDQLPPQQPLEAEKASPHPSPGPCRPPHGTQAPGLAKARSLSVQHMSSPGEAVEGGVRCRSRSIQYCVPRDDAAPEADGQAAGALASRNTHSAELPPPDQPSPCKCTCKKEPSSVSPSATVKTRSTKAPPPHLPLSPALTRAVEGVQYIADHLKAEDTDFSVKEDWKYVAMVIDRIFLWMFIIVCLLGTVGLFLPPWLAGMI

[5] = target: Neuronal acetylcholine receptor; alpha4/beta2 (Rattus norvegicus, UniProt P09483+P12390); test: Displacement of [3H]cytisine from alpha-4-beta-2 ACHR in rat brain homogenate; format: tissue-based
Neuronal acetylcholine receptor; alpha4/beta2 (Rattus norvegicus, UniProt P09483+P12390), sequence (P09483 whole entry): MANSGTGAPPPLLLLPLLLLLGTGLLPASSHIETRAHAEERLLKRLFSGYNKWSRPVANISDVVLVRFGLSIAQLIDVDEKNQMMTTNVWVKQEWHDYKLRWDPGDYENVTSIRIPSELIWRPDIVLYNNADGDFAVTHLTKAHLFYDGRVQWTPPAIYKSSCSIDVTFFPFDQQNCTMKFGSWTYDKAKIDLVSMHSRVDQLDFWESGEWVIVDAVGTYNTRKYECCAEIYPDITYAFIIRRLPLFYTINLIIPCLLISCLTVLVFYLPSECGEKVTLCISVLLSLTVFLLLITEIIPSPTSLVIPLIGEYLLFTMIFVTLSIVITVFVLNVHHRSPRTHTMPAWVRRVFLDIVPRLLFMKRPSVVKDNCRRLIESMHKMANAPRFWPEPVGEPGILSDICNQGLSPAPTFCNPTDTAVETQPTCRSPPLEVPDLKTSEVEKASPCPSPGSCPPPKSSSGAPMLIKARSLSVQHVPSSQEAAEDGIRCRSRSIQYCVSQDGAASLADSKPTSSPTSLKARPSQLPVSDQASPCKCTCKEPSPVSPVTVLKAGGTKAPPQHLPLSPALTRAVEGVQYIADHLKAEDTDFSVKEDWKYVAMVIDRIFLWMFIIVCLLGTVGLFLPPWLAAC
Neuronal acetylcholine receptor; alpha4/beta2 (Rattus norvegicus, UniProt P09483+P12390), sequence (P12390 whole entry): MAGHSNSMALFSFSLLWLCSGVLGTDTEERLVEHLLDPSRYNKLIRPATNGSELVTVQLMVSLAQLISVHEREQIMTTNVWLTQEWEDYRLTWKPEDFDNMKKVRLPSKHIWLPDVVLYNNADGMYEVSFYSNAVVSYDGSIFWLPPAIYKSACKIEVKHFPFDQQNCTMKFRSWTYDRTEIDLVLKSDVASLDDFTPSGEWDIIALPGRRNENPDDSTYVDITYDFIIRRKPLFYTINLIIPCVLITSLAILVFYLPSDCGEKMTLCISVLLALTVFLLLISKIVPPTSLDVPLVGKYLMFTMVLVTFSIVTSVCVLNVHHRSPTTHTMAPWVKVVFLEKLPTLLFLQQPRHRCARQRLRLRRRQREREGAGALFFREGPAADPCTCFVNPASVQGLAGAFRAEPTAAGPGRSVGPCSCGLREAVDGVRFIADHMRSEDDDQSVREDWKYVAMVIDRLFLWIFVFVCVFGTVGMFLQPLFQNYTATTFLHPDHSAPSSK

[6] = target: T2, Neuronal acetylcholine receptor; alpha4/beta2; test: Maximal agonist activity on human alpha-4-beta-2 ACHR expressed in HEK293 cells assessed as change in intracellular calcium concentration by FLIPR relative to nicotine; format: functional, cell-based
Rattus norvegicus [7] = test: Induction of behavioral side effects in rat formalin model upto 19 umol/kg, […]; format: functional, organism-based
Rattus norvegicus [8] = test: Activity in rat formalin model measured as reduction in flinches at 6.2 umol/kg, ip; format: functional; design: scale not given: the % may be the effect or the level left
Rattus norvegicus [9] = species: Rattus norvegicus; test: Activity in rat formalin model measured as reduction in flinches; format: functional, organism-based
Rattus norvegicus [10] = test: Activity in rat formalin model measured as reduction in flinches at 0.19 umol/kg, ip; format: functional; design: scale not given: the % may be the effect or the level left
Homo sapiens = species: Homo sapiens; test: Selectivity for human alpha4beta2 ACHR over alpha-3-beta-4 ACHR; format: functional

Compound `Brc1cc(N2CC[C@@H]3CN[C@@H]3C2)cnc1Br` has an Activity [1] of 100%, an EC50 [2] of 110 nM and an Activity (Rattus norvegicus [3]) of 26%. For the same compound, the EC50 [4] was 76 nM, the Ki [5] was 0.024 nM and the Activity [6] was 86%.
For `Clc1cc(N2CC[C@@H]3CN[C@@H]3C2)cnc1Cl`, the Activity [1] was 111%, the EC50 [2] was 110 nM and the Activity (Rattus norvegicus [3]) was 55%. For the same compound, the EC50 [4] was 82 nM, the Ki [5] was 0.027 nM and the Activity [6] was 79%.
`Brc1cc(N2CC[C@H]3CN[C@H]3C2)cnc1Br` was tested, and the Activity [1] was 117%, the EC50 [2] was 8.2 nM and the Activity (Rattus norvegicus [7]) was “inactive”. It also gave an EC50 [4] of 7.8 nM, an Activity (Rattus norvegicus [8]) of 99% and a Ki [5] of 0.014 nM. For the same compound, the Activity [6] was 209%.
`COc1cncc(N2CC[C@@H]3CN[C@@H]3C2)c1` showed an Activity [1] of 86%, an EC50 [2] of 4500 nM and an EC50 [4] of 2700 nM. The Ki [5] was 0.18 nM, the Activity (Rattus norvegicus [9]) was “inactive” and the Activity [6] was 35%.
`Clc1ccc(N2C[C@@H]3CCNC[C@@H]32)cn1` gave an Activity (Rattus norvegicus [10]) of 50%, an Activity [1] of 129% and an EC50 [2] of 1390 nM. For the same compound, the EC50 [4] was 37.4 nM, the Ki [5] was 0.12 nM and the Activity [6] was 94%.
`N#Cc1cncc(N2CC[C@@H]3CN[C@@H]3C2)c1` was tested, and the Activity [1] was 116%, the EC50 [2] was 490 nM and the Activity (Rattus norvegicus [3]) was “inactive”. It also gave an EC50 [4] of 1900 nM, a Ki [5] of 0.065 nM and an Activity [6] of 76%.
With `Cc1cc(N2C[C@@H]3CCNC[C@@H]32)cnc1Cl` the Activity [1] was 91%, the EC50 [2] was 1910 nM and the Activity (Rattus norvegicus [7]) was “Active”. The Activity (Rattus norvegicus [3]) was “inactive”, the EC50 [4] was 76.1 nM and the Ki [5] was 0.043 nM. The Activity [6] was 103%.
Compound `Clc1ccc(N2CC[C@H]3CN[C@H]3C2)cn1` has an Activity [1] of 151%, a Ratio EC50 (Homo sapiens) of 2 and an EC50 [2] of 29 nM. For the same compound, the EC50 [4] was 13 nM, the Ki [5] was 0.019 nM and the Activity [6] was 114%.
For `COc1cncc(N2CC[C@H]3CN[C@H]3C2)c1`, the Activity [1] was 103%, the EC50 [2] was 180 nM and the Activity (Rattus norvegicus [7]) was “inactive”. The EC50 [4] was 130 nM, the Ki [5] was 0.038 nM and the Activity (Rattus norvegicus [9]) was “Dose-dependent effect”. For the same compound, the Activity [6] was 178%.
`N#Cc1cncc(N2CC[C@H]3CN[C@H]3C2)c1` showed an Activity [1] of 127%, an EC50 [2] of 1000 nM and an EC50 [4] of 1900 nM. It also gave an Activity (Rattus norvegicus [8]) of 80%, a Ki [5] of 0.12 nM and an Activity [6] of 112%.
Work on `Cc1cc(N2C[C@H]3CCNC[C@H]32)cnc1Cl` yielded an Activity [1] of 103%, an EC50 [2] of 298 nM and an Activity (Rattus norvegicus [3]) of 75%. It also gave an EC50 [4] of 134 nM, a Ki [5] of 0.24 nM and an Activity [6] of 142%.
